# From US12692254B2, “Benzimidazole inhibitors of PAD enzymes” (BRISTOL-MYERS SQUIBB COMPANY, priority 2018, dated 2026)
# Biological target: human PAD4 (hPAD4) (Homo sapiens, UniProt Q9UM07)
# Test: RFMS human PAD4 functional assay (rapid-fire mass spectrum)
# Assay type: biochemical
# Details: 5 nM hPAD4 enzyme, 250 μM BAEE, 50 μM Calcium; 30 min preincubation, 90 min reaction at 37° C.
# Method in brief: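 PAD4 (10 nM) preincubated 30 min with compound (top final 50 μM), then BAEE substrate added in pH 7.5 HEPES buffer with DTT, 50 μM calcium, TPEN; 90 min at 37° C. After TCA quench, citrulline derivatized with phenyl glyoxal (4 mM final, 30 min, 37° C) and quantified by RapidFire MS against internal standard.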
# human PAD4 (hPAD4), sequence (Q9UM07 whole entry): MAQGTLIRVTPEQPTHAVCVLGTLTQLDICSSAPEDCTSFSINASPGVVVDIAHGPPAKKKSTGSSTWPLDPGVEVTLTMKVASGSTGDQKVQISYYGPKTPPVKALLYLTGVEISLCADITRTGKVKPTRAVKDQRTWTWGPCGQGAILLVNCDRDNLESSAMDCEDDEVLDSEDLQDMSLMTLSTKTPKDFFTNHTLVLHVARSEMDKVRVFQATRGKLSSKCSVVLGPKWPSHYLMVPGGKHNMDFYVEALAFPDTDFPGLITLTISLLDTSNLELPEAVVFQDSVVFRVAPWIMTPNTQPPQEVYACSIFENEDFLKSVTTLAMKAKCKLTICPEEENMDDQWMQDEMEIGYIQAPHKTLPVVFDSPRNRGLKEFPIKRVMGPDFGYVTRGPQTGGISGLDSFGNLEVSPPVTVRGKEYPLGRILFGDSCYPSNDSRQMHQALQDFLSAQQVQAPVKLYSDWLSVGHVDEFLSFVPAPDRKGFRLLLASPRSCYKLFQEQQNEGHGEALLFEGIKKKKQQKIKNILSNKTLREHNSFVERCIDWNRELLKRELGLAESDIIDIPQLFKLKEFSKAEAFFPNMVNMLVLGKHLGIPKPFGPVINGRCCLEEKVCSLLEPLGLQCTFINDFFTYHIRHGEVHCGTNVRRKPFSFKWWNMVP
row,SMILES,IC50 [nM]
1,"COC(=O)N1CC(n2c(-c3cc4cccnc4n3CC3CC3)nc3cc(C(=O)N4C[C@H]5CC[C@@H]4[C@@H]5N)cc(OC)c32)C1 [Example 188, methyl 3-{5-[(1R,4R,7R)-7-amino-2-azabicyclo[2.2.1]heptane-2-carbonyl]-2-[1-(cyclopropylmethyl)-1H-pyrrolo[2,3-b]pyridin-2-yl]-7-methoxy-1H-1,3-benzodiazol-1-yl}azetidine-1-carboxylate]",393
2,"COc1cc(C(=O)N2C[C@H]3CC[C@@H]2[C@@H]3N)cc2nc(-c3cc4cccnc4n3CC3CC3)n(C3CN(c4cnc(C#N)nc4)C3)c12 [Example 82, 5-(3-{5-[(1R,4R,7R)-7-amino-2-azabicyclo[2.2.1]heptane-2-carbonyl]-2-[1-(cyclopropylmethyl)-1H-pyrrolo[2,3-b]pyridin-2-yl]-7-methoxy-1H-1,3-benzodiazol-1-yl}azetidin-1-yl)pyrimidine-2-carbonitrile]",424
3,"COc1cc(C(=O)N2C[C@H]3CC[C@@H]2[C@@H]3N)cc2nc(-c3cc4ccccc4n3CC3CC3)n(CC3CN(C(=O)c4cc(C#N)ccc4F)C3)c12 [Example 174, 3-[3-({5-[(1R,4R,7R)-7-amino-2-azabicyclo[2.2.1]heptane-2-carbonyl]-2-[1-(cyclopropylmethyl)-1H-indol-2-yl]-7-methoxy-1H-1,3-benzodiazol-1-yl}methyl)azetidine-1-carbonyl]-4-fluorobenzonitrile]",64
4,"COc1cc(C(=O)N2C[C@H](N)C[C@@H](F)C2)cc2nc(-c3cc4ccccc4n3CC3CC3)n(Cc3cccnc3)c12 [Example 248, ((3R,5R)-3-amino-5-fluoropiperidin-1-yl)(2-(1-(cyclopropylmethyl)-1H-indol-2-yl)-7-methoxy-1-(pyridin-3-ylmethyl)-1H-benzo[d]imidazol-5-yl)methanone]",116
5,"N[C@@H]1[C@@H]2CC[C@H]1N(C(=O)c1cc(Cl)c3c(c1)nc(-c1cc4ccccc4n1CC1CC1)n3CC1CN(C(=O)c3ccncc3)C1)C2 [Example 93, (3-((5-((1R,4R,7R)-7-amino-2-azabicyclo[2.2.1]heptane-2-carbonyl)-7-chloro-2-(1-(cyclopropylmethyl)-1H-indol-2-yl)-1H-benzo[d]imidazol-1-yl)methyl)azetidin-1-yl)(pyridin-4-yl)methanone]",16
6,"COc1cc(C(=O)N2C[C@H]3CC[C@@H]2[C@@H]3N)cc2nc(-c3cc4cccnc4n3CC3CC3)n(C3CN(c4ccnc(C#N)n4)C3)c12 [Example 68, 4-(3-{5-[(1R,4R,7R)-7-amino-2-azabicyclo[2.2.1]heptane-2-carbonyl]-2-[1-(cyclopropylmethyl)-1H-pyrrolo[2,3-b]pyridin-2-yl]-7-methoxy-1H-1,3-benzodiazol-1-yl}azetidin-1-yl)pyrimidine-2-carbonitrile]",124
7,"COc1cc(C(=O)N2C[C@H]3CC[C@@H]2[C@@H]3N)cc2nc(-c3cc4cccnc4n3CC3CC3)n(CC3CN(c4ccnc(S(C)(=O)=O)n4)C3)c12 [Example 18, (1R,4R,7R)-2-{2-[1-(cyclopropylmethyl)-1H-pyrrolo[2,3-b]pyridin-2-yl]-1-{[1-(2-methanesulfonylpyrimidin-4-yl)azetidin-3-yl]methyl}-7-methoxy-1H-1,3-benzodiazole-5-carbonyl}-2-azabicyclo[2.2.1]heptan-7-amine]",54
8,"COc1cc(C(=O)N2C[C@H]3CC[C@@H]2[C@@H]3N)cc2nc(-c3cc4cccnc4n3C)n(C[C@H]3CCN(c4ccnc(C)n4)C3)c12 [Example 213, (1R,4R,7R)-2-(7-methoxy-2-{1-methyl-1H-pyrrolo[2,3-b]pyridin-2-yl}-1-{[(3S)-1-(2-methylpyrimidin-4-yl)pyrrolidin-3-yl]methyl}-1H-1,3-benzodiazole-5-carbonyl)-2-azabicyclo[2.2.1]heptan-7-amine]",99
9,"COc1ccccc1C(=O)N1CC(Cn2c(-c3cc4ccccc4n3CC3CC3)nc3cc(C(=O)N4C[C@H]5CC[C@@H]4[C@@H]5N)cc(OC)c32)C1 [Example 168, (1R,4R,7R)-2-{2-[1-(cyclopropylmethyl)-1H-indol-2-yl]-7-methoxy-1-{[1-(2-methoxybenzoyl)azetidin-3-yl]methyl}-1H-1,3-benzodiazol-5-carbonyl}-2-azabicyclo[2.2.1]heptan-7-amine]",33
10,"COc1cc(C(=O)N2CC3CCC2[C@@H]3N)cc2nc(-c3cc4ccccc4n3CC3CC3)n(CC3CN(C(=O)C4CCC(F)(F)C4)C3)c12 (stereo partly drawn) [Example 139, (1R,4R,7R)-2-{2-[1-(cyclopropylmethyl)-1H-indol-2-yl]-1-{[1-(3,3-difluorocyclopentanecarbonyl)aze-tidin-3-yl]methyl}-7-methoxy-1H-1,3-benzodiazole-5-carbonyl}-2-azabicyclo[2.2.1]heptan-7-amine]",12

# The next lines start with the values.
row,IC50 [nM],SMILES
1,23,"COc1cc(C(=O)N2CC3CCC2[C@@H]3N)cc2nc(-c3cc4ccc(Br)cc4n3CC3CC3)n(Cc3cnn(C)c3)c12 (stereo partly drawn) [Example 522, (7R)-2-{2-[6-bromo-1-(cyclopropylmethyl)-1H-indol-2-yl]-7-methoxy-1-[(1-methyl-1H-pyrazol-4-yl)methyl]-1H-1,3-benzodiazole-5-carbonyl}-2-azabicyclo[2.2.1]heptan-7-amine]"
2,43,"COc1cc(C(=O)N2CC3CCC2[C@@H]3N)cc2nc(-c3cc4ccccc4n3CC3CC3)n(CC3CCS(=O)(=O)C3)c12 (mixture of isomers) [Example 258, rac-((7R)-7-amino-2-azabicyclo[2.2.1]heptan-2-yl)(2-(1-(cyclopropylmethyl)-1H-indol-2-yl)-1-((1,1-dioxidotetrahydrothiophen-3-yl)methyl)-7-methoxy-1H-benzo[d]imidazol-5-yl)methanone]"
3,49,"COc1cc(C(=O)N2C[C@H](N)C[C@@H](F)C2)cc2nc(-c3cc4ccccc4n3CC3CC3)n(Cc3cnn(-c4ccccc4)c3)c12 [Example 261, (3R,5R)-1-{2-[1-(cyclopropylmethyl)-1H-indol-2-yl]-7-methoxy-1-[(1-phenyl-1H-pyrazol-4-yl)methyl]-1H-1,3-benzodiazole-5-carbonyl}-5-fluoropiperidin-3-amine]"
4,552,"COc1cc(C(=O)N2C[C@H]3CC[C@@H]2[C@@H]3N)cc2nc(-c3cccn3CC3CC3)n(CC3CN(c4ccnc(C)n4)C3)c12 [Example 314, (1R,4R,7R)-2-{2-[1-(cyclopropylmethyl)-1H-pyrrol-2-yl]-7-methoxy-1-{[1-(2-methylpyrimidin-4-yl)azetidin-3-yl]methyl}-1H-1,3-benzodiazole-5-carbonyl}-2-azabicyclo[2.2.1]heptan-7-amine]"
5,380,"CCc1ccccc1-c1nc2cc(C(=O)N3C[C@H]4CC[C@@H]3[C@@H]4N)cc(OC)c2n1CC1CN(c2cncc(C#N)c2)C1 [Example 312, 5-[3-({5-[(1R,4R,7R)-7-amino-2-azabicyclo[2.2.1]heptane-2-carbonyl]-2-(2-ethylphenyl)-7-methoxy-1H-1,3-benzodiazol-1-yl}methyl)azetidin-1-yl]pyridine-3-carbonitrile]"
6,30,"COc1cc(C(=O)N2CC3CCC2[C@@H]3N)cc2nc(-c3cc4cccnc4n3CC3CC3)n(Cc3cnn(-c4ccc(O)nc4)c3)c12 (stereo partly drawn) [Example 370, 5-[4-({5-[(7R)-7-amino-2-azabicyclo[2.2.1]heptane-2-carbonyl]-2-[1-(cyclopropylmethyl)-1H-pyrrolo[2,3-b]pyridin-2-yl]-7-methoxy-1H-1,3-benzodiazol-1-yl}methyl)-1H-pyrazol-1-yl]pyridin-2-ol]"
